Patent publication US20250333418A1, “PURINE COMPOUNDS, COMPOSITIONS COMPRISING THEM AND USES THEREOF” (Novo Nordisk A/S, priority 2022, published 2025)

Legend:
human CB1 receptor [1] = target: T1, human CB1 receptor (Homo sapiens, UniProt P21554); assay: bioSensAll β-arrestin2 plasma membrane translocation (+GRK2) BRET biosensor assay in HEK293 cells transfected with hCB1; test compound added before EC75-80 of agonist CP55,940 (100 nM); assay type: cell-based; settings: βArrestin2 (+GRK2) BRET biosensor, vs CP55,940 100 nM (EC75-80), read-out: CB1 wt βarr2 IC50
T1 construct: expressed in transfected cells; host or cells: HEK293
Summary of the method: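 Antagonist mode: compound at 12 concentrations up to 600 nM, then 100 nM CP55,940 3–5 min later, on hCB1-transfected HEK293 cells carrying the β-arrestin2 plasma-membrane biosensor plus GRK2. After overnight 37 °C incubation, 515/400 nm BRET ratio measured with 2 µM methoxy e-CTZ and standardized against positive/negative controls.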

human CB1 receptor [2] = target: T1, human CB1 receptor; assay: bioSensAll GAPL-Gi2 BRET biosensor assay in HEK293 cells transfected with hCB1; test compound added before EC75-80 of agonist CP55,940 (0.1 nM); assay type: cell-based; settings: vs CP55,940 0.1 nM (EC75-80), read-out: CB1 wt Gi2 IC50
Summary of the method: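 Test compounds at 12 doses up to 600 nM preceded a 0.1 nM CP55,940 challenge in hCB1/GAPL-Gi2 HEK293 cells. After overnight 37° C incubation, methoxy e-coelenterazine (2 µM final) was added and the 515/400 nm BRET ratio normalized to positive and negative controls.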

T1 sequence (P21554 whole entry): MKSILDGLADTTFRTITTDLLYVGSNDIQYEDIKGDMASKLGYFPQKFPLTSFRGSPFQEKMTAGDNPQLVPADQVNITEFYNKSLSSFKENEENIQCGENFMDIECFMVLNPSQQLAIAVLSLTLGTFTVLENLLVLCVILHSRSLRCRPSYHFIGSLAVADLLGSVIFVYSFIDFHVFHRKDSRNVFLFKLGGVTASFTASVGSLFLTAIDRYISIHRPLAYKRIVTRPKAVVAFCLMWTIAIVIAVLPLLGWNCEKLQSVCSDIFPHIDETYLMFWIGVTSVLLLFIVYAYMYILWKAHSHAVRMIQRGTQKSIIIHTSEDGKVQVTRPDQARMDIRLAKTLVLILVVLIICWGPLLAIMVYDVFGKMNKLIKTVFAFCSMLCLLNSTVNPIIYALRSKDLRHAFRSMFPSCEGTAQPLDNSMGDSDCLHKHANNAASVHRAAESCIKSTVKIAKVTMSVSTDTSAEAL

SMILES	IC50 (human CB1 receptor [1])	IC50 (human CB1 receptor [2])
COC1(C)CN(c2nc(N(C)CCO)nc3c2nc(-c2ccccc2Cl)n3-c2ccc(Cl)cc2)C1 [Compound 76]	1.18 nM	0.51 nM
CC1(C(N)=O)CCN(c2nc(C(=O)O)nc3c2nc(-c2ccccc2Cl)n3-c2ccc(Cl)cc2)CC1 [Compound 77, 6-(4-carbamoyl-4-methyl-1-piperidyl)-8-(2-chlorophenyl)-9-(4-chlorophenyl)purine-2-carboxylic acid]	> 5000 nM	> 5000 nM
CC1(C(N)=O)CCN(c2nc(OCCO)nc3c2nc(-c2ccccc2Cl)n3-c2ccc(Cl)cc2)CC1 [Compound 78, 1-[8-(2-chlorophenyl)-9-(4-chlorophenyl)-2-(2-hydroxyethoxy)purin-6-yl]-4-methyl-piperidine-4-carboxamide]	5.68 nM	0.995 nM
C[C@@H](O)CNc1nc(N2CCC(C)(C(N)=O)CC2)c2nc(-c3ccccc3Cl)n(-c3ccc(Cl)cc3)c2n1 [Compound 83, 1-[8-(2-chlorophenyl)-9-(4-chlorophenyl)-2-[[(2R)-2-hydroxypropyl]amino]purin-6-yl]-4-methyl-piperidine-4-carboxamide]	6.26 nM	1.16 nM
CC(C)(O)CNc1nc(N2CCC(C)(C(N)=O)CC2)c2nc(-c3ccccc3Cl)n(-c3ccc(Cl)cc3)c2n1 [Compound 85, 1-[8-(2-chlorophenyl)-9-(4-chlorophenyl)-2-[(2-hydroxy-2-methyl-propyl)amino]purin-6-yl]-4-methyl-piperidine-4-carboxamide]	6.76 nM	0.754 nM
CC(C)Oc1nc(OCC(C)(C)O)nc2c1nc(-c1ccccc1Cl)n2-c1ccc(Cl)cc1 [Compound 86]	9.49 nM	1.38 nM
CC(C)Nc1nc(OCC(C)(C)O)nc2c1nc(-c1ccccc1Cl)n2-c1ccc(Cl)cc1 [Compound 87]	21.6 nM	3.1 nM
CC(C)C(=O)Nc1nc(N2CCC(C)(C#N)CC2)c2nc(-c3ccccc3Cl)n(-c3ccc(Cl)cc3)c2n1 [Compound 89, N-[8-(2-chlorophenyl)-9-(4-chlorophenyl)-6-(4-cyano-4-methyl-1-piperidyl)purin-2-yl]-2-methyl-propanamide]	2.31 nM	0.789 nM
CCN(CCO)c1nc(N2CCC(C)(C(N)=O)CC2)c2nc(-c3ccccc3Cl)n(-c3ccc(Cl)cc3)c2n1 [Compound 90, 1-[8-(2-chlorophenyl)-9-(4-chlorophenyl)-2-[ethyl(2-hydroxyethyl)amino]purin-6-yl]-4-methyl-piperidine-4-carboxamide]	1.36 nM	0.52 nM
CO[C@H]1CCN(c2nc(N3CCC(C)(C(N)=O)CC3)c3nc(-c4ccccc4Cl)n(-c4ccc(Cl)cc4)c3n2)C1 [Compound 92, 1-[8-(2-chlorophenyl)-9-(4-chlorophenyl)-2-[(3S)-3-methoxypyrrolidin-1-yl]purin-6-yl]-4-methyl-piperidine-4-carboxamide]	7.93 nM	1.71 nM
CC(C)N1CCN(c2nc(OCC(C)(C)O)nc3c2nc(-c2ccccc2Cl)n3-c2ccc(Cl)cc2)CC1 [Compound 96]	5.68 nM	3.43 nM
CN(CCO)c1nc(OCC(C)(C)O)nc2c1nc(-c1ccccc1Cl)n2-c1ccc(Cl)cc1 [Compound 97]	123 nM	25.8 nM
CCOc1nc(OCC(C)(C)O)nc2c1nc(-c1ccccc1Cl)n2-c1ccc(Cl)cc1 [Compound 99]	36.2 nM	4.51 nM
CC(C)(O)COc1nc(NCC(N)=O)c2nc(-c3ccccc3Cl)n(-c3ccc(Cl)cc3)c2n1 [Compound 100]	> 5000 nM	> 5000 nM
CC(C)Oc1nc(OC[C@H](C)O)nc2c1nc(-c1ccccc1Cl)n2-c1ccc(Cl)cc1 [Compound 101]	16 nM	1.53 nM
Cc1ncccc1-c1nc2c(N3CCC(C)(C(N)=O)CC3)nc(OCC(C)(C)O)nc2n1-c1ccc(Cl)cc1 [Compound 104, 1-[9-(4-chlorophenyl)-2-(2-hydroxy-2-methyl-propoxy)-8-(2-methyl-3-pyridyl)purin-6-yl]-4-methyl-piperidine-4-carboxamide]	> 5000 nM	48.8 nM

Results, then the molecule that gave them:

IC50 (human CB1 receptor [1])	IC50 (human CB1 receptor [2])	SMILES
4.37 nM	0.868 nM	C[C@@H](O)COc1nc(N2CCC(C)(C(N)=O)CC2)c2nc(-c3ccccc3Cl)n(-c3ccc(Cl)cc3)c2n1 [Compound 79, 1-[8-(2-chlorophenyl)-9-(4-chlorophenyl)-2-[(2R)-2-hydroxypropoxy]purin-6-yl]-4-methyl-piperidine-4-carboxamide]
5.09 nM	1.02 nM	C[C@H](O)COc1nc(N2CCC(C)(C(N)=O)CC2)c2nc(-c3ccccc3Cl)n(-c3ccc(Cl)cc3)c2n1 [Compound 80, 1-[8-(2-chlorophenyl)-9-(4-chlorophenyl)-2-[(2S)-2-hydroxypropoxy]purin-6-yl]-4-methyl-pi-peridine-4-carboxamide]
4.9 nM	0.896 nM	C[C@H](CO)Oc1nc(N2CCC(C)(C(N)=O)CC2)c2nc(-c3ccccc3Cl)n(-c3ccc(Cl)cc3)c2n1 [Compound 81, 1-[8-(2-chlorophenyl)-9-(4-chlorophenyl)-2-[(1R)-2-hydroxy-1-methyl-ethoxy]purin-6-yl]-4-methyl-piperidine-4-carboxamide]
4.49 nM	0.753 nM	C[C@@H](CO)Oc1nc(N2CCC(C)(C(N)=O)CC2)c2nc(-c3ccccc3Cl)n(-c3ccc(Cl)cc3)c2n1 [Compound 82, 1-[8-(2-chlorophenyl)-9-(4-chlorophenyl)-2-[(1S)-2-hydroxy-1-methyl-ethoxy]purin-6-yl]-4-methyl-piperidine-4-carboxamide]
11.7 nM	2.1 nM	C[C@H](O)CNc1nc(N2CCC(C)(C(N)=O)CC2)c2nc(-c3ccccc3Cl)n(-c3ccc(Cl)cc3)c2n1 [Compound 84, 1-[8-(2-chlorophenyl)-9-(4-chlorophenyl)-2-[[(2S)-2-hydroxypropyl]amino]purin-6-yl]-4-methyl-piperidine-4-carboxamide]
2.56 nM	0.801 nM	CO[C@@H]1CCN(c2nc(N3CCC(C)(C(N)=O)CC3)c3nc(-c4ccccc4Cl)n(-c4ccc(Cl)cc4)c3n2)C1 [Compound 91, 1-[8-(2-chlorophenyl)-9-(4-chlorophenyl)-2-[(3R)-3-methoxypyrrolidin-1-yl]purin-6-yl]-4-methyl-piperidine-4-carboxamide]
1.43 nM	0.606 nM	CC1(C(N)=O)CCN(c2nc(N3CC[C@@H](O)C3)nc3c2nc(-c2ccccc2Cl)n3-c2ccc(Cl)cc2)CC1 [Compound 93, 1-[8-(2-chlorophenyl)-9-(4-chlorophenyl)-2-[(3R)-3-hydroxypyrrolidin-1-yl]purin-6-yl]-4-methyl-piperidine-4-carboxamide]
2.41 nM	0.82 nM	CC1(C(N)=O)CCN(c2nc(N3CC[C@H](O)C3)nc3c2nc(-c2ccccc2Cl)n3-c2ccc(Cl)cc2)CC1 [Compound 94, 1-[8-(2-chlorophenyl)-9-(4-chlorophenyl)-2-[(3S)-3-hydroxypyrrolidin-1-yl]purin-6-yl]-4-methyl-piperidine-4-carboxamide]
72.4 nM	13 nM	CC(C)(O)COc1nc(N2CCC(C)(C(N)=O)CC2)c2nc(-c3ccccc3Cl)n(-c3ccccc3)c2n1 [Compound 95, 1-[8-(2-chlorophenyl)-2-(2-hydroxy-2-methyl-propoxy)-9-phenyl-purin-6-yl]-4-methyl-piperidine-4-carboxamide]
40.1 nM	50 nM	CN(C)CCNc1nc(N2CCC(C)(C(N)=O)CC2)c2nc(-c3ccccc3Cl)n(-c3ccc(Cl)cc3)c2n1 [Compound 102, 1-[8-(2-chlorophenyl)-9-(4-chlorophenyl)-2-[2-(dimethylamino)ethylamino]purin-6-yl]-4-methyl-piperidine-4-carboxamide]
> 5000 nM	131 nM	CC(C)(O)COc1nc(N2CCC(C)(C(N)=O)CC2)c2nc(-c3cccnc3)n(-c3ccc(Cl)cc3)c2n1 [Compound 103, 1-[9-(4-chlorophenyl)-2-(2-hydroxy-2-methyl-propoxy)-8-(3-pyridyl)purin-6-yl]-4-methyl-piperidine-4-carboxamide]
760 nM	17.8 nM	Cc1ccncc1-c1nc2c(N3CCC(C)(C(N)=O)CC3)nc(OCC(C)(C)O)nc2n1-c1ccc(Cl)cc1 [Compound 105, 1-[9-(4-chlorophenyl)-2-(2-hydroxy-2-methyl-propoxy)-8-(4-methyl-3-pyridyl)purin-6-yl]-4-methyl-piperidine-4-carboxamide]
50.7 nM	14 nM	CC(C)(O)COc1nc(N2CCC(C)(C(N)=O)CC2)c2nc(-c3ccc(C#N)cc3)n(-c3ccc(Cl)cc3)c2n1 [Compound 106, 1-[9-(4-chlorophenyl)-8-(4-cyanophenyl)-2-(2-hydroxy-2-methyl-propoxy)purin-6-yl]-4-methyl-piperidine-4-carboxamide]
26.2 nM	3.51 nM	Cc1cc(C#N)ncc1-c1nc2c(N3CCC(C)(C(N)=O)CC3)nc(OCC(C)(C)O)nc2n1-c1ccc(Cl)cc1 [Compound 108, 1-[9-(4-chlorophenyl)-8-(6-cyano-4-methyl-3-pyridyl)-2-(2-hydroxy-2-methyl-propoxy)purin-6-yl]-4-methyl-piperidine-4-carboxamide]
61.5 nM	13.2 nM	CC(C)(O)COc1nc(N2CCC(C)(C(N)=O)CC2)c2nc(-c3ccc(C#N)nc3)n(-c3ccc(Cl)cc3)c2n1 [Compound 109, 1-[9-(4-chlorophenyl)-8-(6-cyano-3-pyridyl)-2-(2-hydroxy-2-methyl-propoxy)purin-6-yl]-4-methyl-piperidine-4-carboxamide]
